Results taken from patent US10428080B2, “TBK/IKK inhibitor compounds and uses thereof” (Merck Patent GmbH, priority 2015, dated 2019).
Structures can show the parent of a compound that is named as a salt.

Columns and labels:
IKKε = target: T1, IKKε (Homo sapiens, UniProt Q14164); assay: IKKe Biochemical Assay; details: read-out: IKKε IC50
T1 sequence (Q14164 1-716): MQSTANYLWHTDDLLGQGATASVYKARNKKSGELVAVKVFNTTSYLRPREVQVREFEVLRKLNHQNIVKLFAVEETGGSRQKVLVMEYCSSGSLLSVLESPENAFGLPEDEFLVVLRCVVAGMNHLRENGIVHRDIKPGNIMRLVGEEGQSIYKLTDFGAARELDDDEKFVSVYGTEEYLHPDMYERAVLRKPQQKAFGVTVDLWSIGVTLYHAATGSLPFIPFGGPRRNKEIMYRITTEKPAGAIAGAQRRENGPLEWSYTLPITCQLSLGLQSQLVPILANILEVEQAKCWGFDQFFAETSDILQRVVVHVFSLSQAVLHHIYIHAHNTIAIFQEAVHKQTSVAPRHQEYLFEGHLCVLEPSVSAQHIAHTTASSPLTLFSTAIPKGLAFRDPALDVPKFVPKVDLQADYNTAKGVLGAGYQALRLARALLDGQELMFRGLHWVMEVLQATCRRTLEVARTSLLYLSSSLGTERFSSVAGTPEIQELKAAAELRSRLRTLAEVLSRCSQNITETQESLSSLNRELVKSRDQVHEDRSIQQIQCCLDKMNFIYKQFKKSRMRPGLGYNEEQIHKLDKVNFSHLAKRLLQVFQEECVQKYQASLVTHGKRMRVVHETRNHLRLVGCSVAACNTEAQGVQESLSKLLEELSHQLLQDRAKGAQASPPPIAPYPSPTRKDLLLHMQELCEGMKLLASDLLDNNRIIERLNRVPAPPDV
Procedure, shortened: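 Activity was measured as mobility-shift separation of phosphorylated from unphosphorylated substrate on a LabChip EZ Reader. Compound was titrated from 30 uM final in 10 points, 1:4 steps, with 1% DMSO, and enzyme plus substrate reacted 90 min at 25° C before stop buffer. Control wells held 10 uM staurosporine.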

TBK1 = target: T2, TBK1 (Homo sapiens, UniProt Q9UHD2); assay: TBK Biochemical Assay; details: read-out: TBK1 IC50
T2 sequence (Q9UHD2 1-729): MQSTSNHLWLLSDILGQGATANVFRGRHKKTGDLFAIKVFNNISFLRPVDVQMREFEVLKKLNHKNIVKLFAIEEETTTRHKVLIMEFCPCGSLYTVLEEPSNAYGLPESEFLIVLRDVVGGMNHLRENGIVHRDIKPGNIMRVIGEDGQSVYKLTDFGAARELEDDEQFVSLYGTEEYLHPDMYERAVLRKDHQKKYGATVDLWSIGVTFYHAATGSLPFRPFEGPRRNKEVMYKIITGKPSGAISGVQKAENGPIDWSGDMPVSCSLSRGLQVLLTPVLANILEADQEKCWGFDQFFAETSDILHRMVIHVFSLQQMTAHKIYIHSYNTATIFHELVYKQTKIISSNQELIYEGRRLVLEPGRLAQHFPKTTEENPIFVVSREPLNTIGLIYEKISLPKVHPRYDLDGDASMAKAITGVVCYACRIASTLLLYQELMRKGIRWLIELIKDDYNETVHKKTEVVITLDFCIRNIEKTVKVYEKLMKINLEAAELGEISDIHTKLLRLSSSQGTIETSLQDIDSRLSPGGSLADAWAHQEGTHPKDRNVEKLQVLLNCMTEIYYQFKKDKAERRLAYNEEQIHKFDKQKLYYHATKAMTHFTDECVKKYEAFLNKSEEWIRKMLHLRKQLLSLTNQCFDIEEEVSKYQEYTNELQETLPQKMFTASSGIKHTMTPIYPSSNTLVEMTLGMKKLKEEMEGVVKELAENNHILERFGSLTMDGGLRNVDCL
Procedure, shortened: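 Caliper LabChip mobility-shift readout of substrate and product after 90 min of TBK1 reaction at 25° C and stop-buffer addition. Compounds tested in 1:4 serial dilution over 10 points from 30 uM final at 1% DMSO; staurosporine 10 uM final defines full inhibition.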

[1] = tested on: phosphorylation of the IRF-3 protein in MDA-MB-468 cells; assay: pIRF3 immunocytochemistry cell based assay; details: Homo sapiens; MDA-MB-468 cells, Poly(I:C) stimulation; read-out: pIRF3 IC50
Procedure, shortened: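 After 2 h stimulation with Poly(I:C) (10 ug/ml), following 1 h compound pre-treatment (10-point, 3-fold dilution, top 10 uM), MDA-MB-468 cells were fixed and stained with anti-pIRF3 antibody. pIRF3 fluorescence was normalized to PI staining or cell count on an Acumen cytometer. IC50 curves were derived from this.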

Row | SMILES | IC50 (IKKε) | IC50 (TBK1) | IC50 [1]
1 | COc1cc(C(=O)NCCC2CCNCC2)ccc1-c1cc2nccc(-c3ccc(OC4CCOCC4)c(C#N)c3)c2o1 [Compound 118, 4-{7-[3-Cyano-4-(tetrahydro-pyran-4-yloxy)-phenyl]-furo[3,2-b]pyridin-2-yl}-3-methoxy-N-(2-piperidin-4-yl-ethyl)-benzamide hydrochloride] | < 100 nM | < 100 nM | 100 to 1000 nM
2 | COc1cc(C(=O)NC2(C)CCN(C)CC2)ccc1-c1cc2nccc(-c3ccc(OC4CCOCC4)c(C#N)c3)c2o1 [Compound 370, 4-[7-[3-cyano-4-(oxan-4-yloxy)phenyl]furo[3,2-b]pyridin-2-yl]-N-(1,4-dimethylpiperidin-4-yl)-3-methoxybenzamide hydrochloride] | < 100 nM | < 100 nM | 100 to 1000 nM
3 | COc1cc(C(=O)N(C)CCO)ccc1-c1cc2ncc(F)c(-c3ccc(OC4CCOCC4)c(C#N)c3)c2o1 [Compound 297, 4-[7-[3-cyano-4-(oxan-4-yloxy)phenyl]-6-fluorofuro[3,2-b]pyridin-2-yl]-N-(2-hydroxyethyl)-3-methoxy-N-methylbenzamide] | < 100 nM | < 100 nM | 100 to 1000 nM
4 | COc1cc(C(=O)O)ccc1-c1cc2nccc(-c3ccc(NC4CCOCC4)c(C#N)c3)c2o1 [Compound 88] | < 100 nM | < 100 nM | 100 to 1000 nM
5 | COc1ccc(-c2ccnc3cc(-c4ccc(C(=O)N(C)C)cc4)oc23)cc1C#N [Compound 167, 4-[7-(3-Cyano-4-methoxy-phenyl)-furo[3,2-b]pyridin-2-yl]-N,N-dimethyl-benzamide] | 100 to 1000 nM | 100 to 1000 nM | 1000 to 5000 nM
6 | COc1cc(C(=O)NC2CCC(=O)NC2C)ccc1-c1cc2nccc(-c3ccc(OC4CCOCC4)c(C#N)c3)c2o1 (stereo not drawn) [Compound 369, 4-[7-[3-cyano-4-(oxan-4-yloxy)phenyl]furo[3,2-b]pyridin-2-yl]-3-methoxy-N-(2-methyl-6-oxopiperidin-3-yl)benzamide] | < 100 nM | < 100 nM | 100 to 1000 nM
7 | COc1cc(C(=O)NCC2(F)COC2)ccc1-c1cc2nccc(-c3ccc(OC4CCOCC4)c(C#N)c3)c2o1 [Compound 69, 4-{7-[3-Cyano-4-(tetrahydro-pyran-4-yloxy)-phenyl]-furo[3,2-b]pyridin-2-yl}-N-(3-fluoro-oxetan-3-ylmethyl)-3-methoxy-benzamide] | < 100 nM | < 100 nM | 100 to 1000 nM
8 | COc1cc(C(=O)N2CCC3(CCNC3=O)CC2)ccc1-c1cc2nccc(-c3ccc(NC4CCOCC4)c(C#N)c3)c2o1 [Compound 52, 5-{2-[2-Methoxy-4-(1-oxo-2,8-diaza-spiro[4.5]decane-8-carbonyl)-phenyl]-furo[3,2-b]pyridin-7-yl}-2-(tetrahydro-pyran-4-ylamino)-benzonitrile] | < 100 nM | < 100 nM | 100 to 1000 nM
9 | COc1cc(C(=O)N[C@@H]2CN3CCC2CC3)ncc1-c1cc2nccc(-c3ccc(N4CC[C@H](F)C4)c(C#N)c3)c2o1 [Compound 444, 5-{7-[3-Cyano-4-((S)-3-fluoro-pyrrolidin-1-yl)-phenyl]-furo[3,2-b]pyridin-2-yl}-4-methoxy-pyridine-2-carboxylic acid (1-aza-bicyclo[2.20.2]oct-3-yl)-amide] | < 100 nM | < 100 nM | < 100 nM
10 | CN(C)C(=O)c1cccc(-c2cc3nccc(-c4ccc(OC5CCOCC5)c(C#N)c4)c3o2)c1 [Compound 123] | < 100 nM | < 100 nM | 1000 to 5000 nM

Next, values leading:

Row | IC50 (IKKε) | IC50 (TBK1) | IC50 [1] | SMILES
11 | < 100 nM | < 100 nM | 100 to 1000 nM | COc1cc(C(=O)N2CC[C@@H](N(C)C)C2)cnc1-c1cc2nccc(-c3ccc(N4CCC(F)C4)c(C#N)c3)c2o1 (stereo partly drawn) [Compound 454, 5-[2-(5-[[(3R)-3-(dimethylamino)pyrrolidin-1-yl]carbonyl]-3-methoxypyridin-2-yl)furo[3,2-b]pyridin-7-yl]-2-(3-fluoropyrrolidin-1-yl)benzonitrile]
12 | < 100 nM | < 100 nM | < 100 nM | COc1cc(C(=O)N2C[C@H]3C[C@@H]2CN3C)ccc1-c1cc2nccc(-c3ccc(OC4CCOCC4)c(C#N)c3)c2o1 (stereo in doubt) [Compound 507]
13 | < 100 nM | < 100 nM | 100 to 1000 nM | COc1cc(C(=O)N2CC3COCC3C2)ccc1-c1cc2nccc(-c3ccc(OC4CCOCC4)c(C#N)c3)c2o1 (stereo not drawn) [Compound 504]
14 | < 100 nM | < 100 nM | < 100 nM | COc1cc(C(=O)N(C)C)ncc1-c1cc2nccc(-c3ccc(NC4CCNC4)c(C#N)c3)c2o1 (stereo not drawn) [Compound 431, 5-(7-[3-cyano-4-[(pyrrolidin-3-yl)amino]phenyl]furo[3,2-b]pyridin-2-yl)-4-methoxy-N,N-dimethylpyridine-2-carboxamide]
15 | < 100 nM | < 100 nM | < 100 nM | COc1cc(C(=O)N2CC3CN(C)CC3C2)ccc1-c1cc2nccc(-c3ccc(OC4CCOCC4)c(C#N)c3)c2o1 (stereo not drawn) [Compound 9, 5-{2-[2-Methoxy-4-(5-methyl-hexahydro-pyrrolo[3,4-c]pyrrole-2-carbonyl)-phenyl]-furo[3,2-b]pyridin-7-yl}-2-(tetrahydro-pyran-4-yloxy)-benzonitrile]
16 | 100 to 1000 nM | 100 to 1000 nM | 100 to 1000 nM | COc1cc(C(=O)N(C)C)ccc1-c1cc2nccc(-c3ccc(C4(N5CCOCC5)CC4)c(C#N)c3)c2o1 [Compound 292, 4-(7-[3-cyano-4-[1-(morpholin-4-yl)cyclopropyl]phenyl]furo[3,2-b]pyridin-2-yl)-3-methoxy-N,N-dimethylbenzamide hydrochloride]
17 | < 100 nM | < 100 nM | < 100 nM | COc1cc(C(=O)N2CCC(CO)CC2)ccc1-c1cc2nccc(-c3ccc(OC4CCOCC4)c(C#N)c3)c2o1 [Compound 5, 5-{2-[4-(4-Hydroxymethyl-piperidine-1-carbonyl)-2-methoxy-phenyl]-furo[3,2-b]pyridin-7-yl}-2-(tetrahydro-pyran-4-yloxy)-benzonitrile]
18 | < 100 nM | < 100 nM | < 100 nM | COc1cc(C(=O)N2CC[C@@H](N(C)C)C2)ncc1-c1cc2nccc(-c3ccc(N4CCC(F)C4)c(C#N)c3)c2o1 (stereo partly drawn) [Compound 457, 5-[2-(6-[[(3R)-3-(dimethylamino)pyrrolidin-1-yl]carbonyl]-4-methoxypyridin-3-yl)furo[3,2-b]pyridin-7-yl]-2-(3-fluoropyrrolidin-1-yl)benzonitrile]
19 | < 100 nM | < 100 nM | < 100 nM | COc1cc(C(=O)N2CC[C@H](O)C2)ccc1-c1cc2nccc(-c3ccc(OC4CCOCC4)c(C#N)c3)c2o1 [Compound 14, 5-{2-[4-((S)-3-Hydroxy-pyrrolidine-1-carbonyl)-2-methoxy-phenyl]-furo[3,2-b]pyridin-7-yl}-2-(tetrahydro-pyran-4-yloxy)-benzonitrile]
20 | < 100 nM | < 100 nM | 100 to 1000 nM | COc1cc(C(=O)N(C)C)cnc1-c1cc2nccc(-c3cnc(N4CCC(F)C4)c(C#N)c3)c2o1 (stereo not drawn) [Compound 489]
